Results: publication PMC11873635 (Acta Pharmaceutica Sinica. B, 2024)
Where two headings read alike, the source gives them in different places.

Tests used:
[1] = test system: SM synthesis (SMS activity) in HCEC; assay: Cellular SM synthesis inhibitory assay in HCEC; format: cell-based, human; settings: for EC50: Homo sapiens, HCEC, read-out: SM synthesis inhibitory EC50 in HCEC
[2] = target: T1, human SMS2 (Homo sapiens, UniProt Q8NHU3); assay: purified SMS enzyme inhibitory assay in vitro; format: biochemical; settings: for Selectivity ratio: IC50, SMS1/IC50, SMS2; for LLE: pIC50, SMS2 – ClogP; for inhibition at 1 µM: read-out: SMS2 Inhibition @ 1 μmol/L (%)
T1 sequence (Q8NHU3 1-365): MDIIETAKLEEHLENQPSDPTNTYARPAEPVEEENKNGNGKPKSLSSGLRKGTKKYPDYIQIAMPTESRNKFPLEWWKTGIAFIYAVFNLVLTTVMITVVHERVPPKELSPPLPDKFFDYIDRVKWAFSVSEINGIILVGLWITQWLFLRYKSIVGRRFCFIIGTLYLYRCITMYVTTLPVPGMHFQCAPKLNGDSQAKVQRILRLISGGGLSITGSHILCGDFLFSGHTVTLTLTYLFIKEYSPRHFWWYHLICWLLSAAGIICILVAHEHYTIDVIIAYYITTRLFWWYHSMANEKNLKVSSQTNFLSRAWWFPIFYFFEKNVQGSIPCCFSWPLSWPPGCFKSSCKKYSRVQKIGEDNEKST

[3] = test system: human corneal epithelial cells (HCEC); settings: 1 μmol/L; TNF-α (10 ng/mL), 550 mOsm; after incubation for 3 h
[4] = test system: lipid content of meibomian glands; assay: LC-MS/MS lipidomic analysis of murine meibomian gland tissue; format: in vivo, C57BL/6 mice; settings: DED mice
[5] = in vivo; settings: male, SD, rat, topical or ocular, 16 ug
[6] = test system: murine DED model; assay: Tear volume measurement; format: in vivo, C57BL/6 mice; settings: DED mice
[7] = test system: human corneal epithelial cells (HCEC); assay: cells; settings: 24 h, read-out: EC50 of protective effect on HCEC viability
[8] = test system: human corneal epithelial cells (HCEC); settings: 14l 1/3 and 1 μmol/L, CsA 1 μmol/L; TNF-α 10 ng/mL, 550 mOsm, 5 h
[9] = test system: TNFR1-Caspase3 activation in HCEC; assay: Western blot of TNFR1, caspase3 and cleaved-caspase3 in HCEC; format: cell-based, human; settings: 14l 1/3 and 1 μmol/L; TNF-α 10 ng/mL, 550 mOsm
[10] = test system: Tnf-α, Il-1β and Mmp-9 mRNA in mouse corneas; assay: Quantitative PCR analysis of mouse corneas; format: in vivo, C57BL/6 mice; settings: DED mice, twice a day for 7 days
[11] = target: T2, human SMS1 (Homo sapiens, UniProt Q86VZ5); assay: purified SMS enzyme inhibitory assay in vitro; format: biochemical; settings: for inhibition at 100 µM: read-out: SMS1 Inhibition @ 100 μmol/L (%)
T2 sequence (Q86VZ5 1-413): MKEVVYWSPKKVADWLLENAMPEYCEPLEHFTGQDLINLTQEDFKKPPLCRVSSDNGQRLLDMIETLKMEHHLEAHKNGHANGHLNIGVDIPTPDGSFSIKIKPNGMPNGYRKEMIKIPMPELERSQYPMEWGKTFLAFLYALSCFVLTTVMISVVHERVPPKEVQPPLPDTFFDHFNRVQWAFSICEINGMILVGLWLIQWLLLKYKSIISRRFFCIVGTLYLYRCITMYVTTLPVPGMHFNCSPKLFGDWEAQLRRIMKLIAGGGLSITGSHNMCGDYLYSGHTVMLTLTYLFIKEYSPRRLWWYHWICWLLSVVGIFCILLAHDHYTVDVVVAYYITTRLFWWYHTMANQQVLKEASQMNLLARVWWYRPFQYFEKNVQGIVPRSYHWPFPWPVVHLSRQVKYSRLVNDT

[12] = test system: human corneal epithelial cells (HCEC); assay: Cell viability and toxicity assay; format: cell-based; settings: within 25 μmol/L; 48 h
[13] = SD rats
[14] = test system: murine DED model; assay: Corneal fluorescein staining in murine DED model; format: in vivo, C57BL/6 mice; settings: DED mice; 14l low dose 0.001% twice a day for 7 days
[15] = test system: TNF-α protein expression in HCEC; assay: Western blot of TNF-α protein expression in HCEC under hyperosmotic stress; format: cell-based, human; settings: 1 μmol/L; hyperosmotic 550 mOsm
[16] = 14l 0.001% and 0.025%, CsA 0.05%
[17] = Conjunctiva, single drop 16 μg/eye
[18] = Meibomian glands, single drop 16 μg/eye

With `CCCCCCCCOc1ccccc1COc1ccsc1C(=O)Nc1cccnc1` [14l, 3-((2-(Octyloxy)benzyl)oxy)-N-(pyridin-3-yl)thiophene-2-carboxamide] the “effect on SMS activity of HCEC” value ([1]; 1 μmol/L) was “efficient SMS inhibitory activities”, the EC50 ([1]; 6 h) was 300 nM and the EC50 [1] was 0.131 µg/mL. The IC50 [2] was 28 nM, the Selectivity ratio [2] was 589 and the LLE [2] was 2.21. The inhibition at 1 µM [2] was 95%, the “time-dependent protective effect in HCEC” value [3] was “apparent and durative protective effect” and the “levels of triglycerides (TG) and cholesterol esters (ChE) in meibomian glands” value ([4]; all treatment groups) was “not impacted in all treatment groups”. The “proportion of very long chain SM species in meibomian glands” value ([4]; eye drops twice a day for 7 days) was “reduced the proportion of very long chain SM species”, the “ceramide content in meibomian glands” value ([4]; high dosage of 14l (0.025%)) was “did not induce an extreme increase and accumulation for ceramide” and the Cmax ([5]; conjunctiva) was 358 ng/g. For the same molecule, the Tmax ([5]; conjunctiva) was 0.25 h, the half-life ([5]; conjunctiva) was 1.3 h and the Cmax ([5]; cornea) was 3050 ng/g. It also gave a Tmax ([5]; cornea) of 1 h, a half-life ([5]; cornea) of 1.11 h and a Cmax ([5]; meibomian glands) of 2730 ng/g. The Tmax ([5]; meibomian glands) was 1 h, the half-life ([5]; meibomian glands) was 4.32 h and the “tear volume (Schirmer's test)” value ([6]; 14l high dose 0.025% or CsA (Zirun®) 0.05%, twice a day for 7 days) was “improved significantly”. The “tear volume (Schirmer's test), 14l low dose” value ([6]; 14l low dose 0.001% twice a day for 7 days) was “not in 14l low dose group”, the EC50 [7] was 611 nM and the “HCEC population integrity and early apoptosis proportion” value [8] was “a higher integrity of HCEC population and a less early apoptosis proportion”. The “TNF-α-induced TNFR1-Caspase3 activation” value [9] was “effectively prevent TNF-α-induced TNFR1-Caspase3 activation”, the “Mmp-9 mRNA expression in cornea” value [10, 16] was “decreased significantly in all treatment groups” and the “Tnf-α mRNA expression in cornea” value [10, 16] was “decreased significantly in all treatment groups”. The “Il-1β mRNA expression in cornea” value ([10]; 14l high dose 0.025% or CsA 0.05%) was “reduced only in 14l high dose group and CsA treatment group”, the IC50 [11] was 16000 nM and the inhibition at 100 µM [11] was 87%. For the same molecule, the “HCEC viability (MTT)” value [12] was “less influence on the cell viability”, the “AUC0‒t” value [13, 17] was 489.73 ng·h/g and the “AUC0‒∞” value [13, 17] was 564.99 ng·h/g. For the same molecule, the “AUC0‒t” value ([13]; Cornea, single drop 16 μg/eye) was 4339.41 ng·h/g, the “AUC0‒∞” value ([13]; Cornea, single drop 16 μg/eye) was 4567.46 ng·h/g and the “AUC0‒t” value [13, 18] was 14379.61 ng·h/g. For the same molecule, the “AUC0‒∞” value [13, 18] was 14670.67 ng·h/g, the “adverse effect during the PK study” value ([13]; single drop 16 μg/eye) was “No adverse effect” and the “detection in blood and retina” value ([13]; single drop 16 μg/eye) was “not detected in the blood and retina”. The ocular tissue distribution ([13]; single drop 16 μg/eye in 50% HP-β-CD) was “distributed mainly in the meibomian glands, conjunctiva and cornea”, the “corneal fluorescein scores, 14l low dose” value [14] was “higher than the two other treatment groups but lower than the DED control group” and the TNF-α protein expression [15] was “inhibited TNF-α protein expression”.

Molecule `O=C(Nc1cccnc1)c1sccc1OCc1cc(F)ccc1Cl` [14d] has an inhibition at 1 µM [2] of 79%, an IC50 [11] of 102000 nM and an inhibition at 100 µM [11] of 53%.

Work on `CCCCCCCCCOc1ccccc1COc1ccsc1C(=O)Nc1cccnc1` [14m] yielded an IC50 [2] of 35 nM, a Selectivity ratio [2] of 360 and an LLE [2] of 1.58. The inhibition at 1 µM [2] was 91%, the IC50 [11] was 13000 nM and the inhibition at 100 µM [11] was 86%.

Molecule `O=C(Nc1cccnc1)c1sccc1OCc1c2ccccc2cc2ccccc12` [9c] has an inhibition at 1 µM [2] of 79% and an inhibition at 100 µM [11] of 5%.

Molecule `O=C(Nc1cccnc1F)c1sccc1OCc1ccccc1` [7a] has an IC50 [2] of 1790 nM, an LLE [2] of 2.31 and an inhibition at 1 µM [2] of 41%. For the same molecule, the inhibition at 100 µM [11] was 53%.

For `O=C(Nc1ccnnc1)c1sccc1OCc1ccccc1` [7j], the inhibition at 1 µM [2] was -16% and the inhibition at 100 µM [11] was 5%.

`CCCCOc1ccccc1COc1ccsc1C(=O)Nc1cccnc1` [14h] showed an IC50 [2] of 65 nM, a Selectivity ratio [2] of 313 and an LLE [2] of 3.14. It also gave an inhibition at 1 µM [2] of 85%, an IC50 [11] of 20000 nM and an inhibition at 100 µM [11] of 81%.

`CCOc1ccccc1COc1ccsc1C(=O)Nc1cccnc1` [14f] gave an IC50 [2] of 78 nM, a Selectivity ratio [2] of 1004 and an LLE [2] of 3.67. The inhibition at 1 µM [2] was 83%, the IC50 [11] was 78000 nM and the inhibition at 100 µM [11] was 56%.

For `O=C(Nc1ccc(F)nc1)c1sccc1OCc1ccccc1` [7d], the inhibition at 1 µM [2] was 12% and the inhibition at 100 µM [11] was 57%.

`CCCCCCOc1ccccc1COc1ccsc1C(=O)Nc1cccnc1` [14j] showed an IC50 [2] of 67 nM, a Selectivity ratio [2] of 85 and an LLE [2] of 2.52. For the same molecule, the inhibition at 1 µM [2] was 88%, the IC50 [11] was 6000 nM and the inhibition at 100 µM [11] was 93%.

With `O=C(Nc1cccnc1)c1sccc1OCc1cccc(Cl)c1` [14b] the IC50 [2] was 199 nM, the LLE [2] was 3.02 and the inhibition at 1 µM [2] was 68%. For the same molecule, the inhibition at 100 µM [11] was 60%.

In the case of `O=C(Nc1cccnc1)c1sccc1OCc1cccc2cccnc12` [9d], the inhibition at 1 µM [2] is reported as 45% and the inhibition at 100 µM [11] is reported as 21%.

Molecule `O=C(Nc1cccnc1)c1sccc1OCc1ccc(Cl)cc1` [14c] has an IC50 [2] of 38800 nM, an LLE [2] of 0.75 and an inhibition at 1 µM [2] of 26%. The inhibition at 100 µM [11] was 52%.

With `CCCCCOc1ccccc1COc1ccsc1C(=O)Nc1cccnc1` [14i] the IC50 [2] was 74 nM, the Selectivity ratio [2] was 142 and the LLE [2] was 2.62. The inhibition at 1 µM [2] was 86%, the IC50 [11] was 10000 nM and the inhibition at 100 µM [11] was 88%.

Work on `O=C(Nc1cccnc1)c1scc(Br)c1OCc1ccccc1` [5f] yielded an inhibition at 1 µM [2] of 42% and an inhibition at 100 µM [11] of 14%.

With `CCCCCCCCCCCOc1ccccc1COc1ccsc1C(=O)Nc1cccnc1` [14o] the IC50 [2] was 29 nM, the Selectivity ratio [2] was 445 and the LLE [2] was 0.98. The inhibition at 1 µM [2] was 95%, the IC50 [11] was 13000 nM and the inhibition at 100 µM [11] was 90%.
